Measured values: patent US20210267203A1, “PESTICIDALLY ACTIVE AZOLE-AMIDE COMPOUNDS” (SYNGENTA PARTICIPATIONS AG, priority 2018, published 2021)

Assays:
Assay type in all cases: in vivo
[1] = system: Diabrotica Balteata (Corn Root Worm); test: Example B1: Diabrotica balteata (corn root worm), maize sprouts sprayed, L2 larvae; details: 96 h, application rate 200 ppm, 4 days after infestation, read-out: effect in at least one of the two categories (mortality or growth inhibition)
Protocol: Example B1: Diabrotica Balteata (Corn Root Worm)
Maize sprouts placed onto an agar layer in 24-well microtiter plates were treated with aqueous test solutions prepared from 10,000 ppm DMSO stock solutions by spraying. After drying, the plates were infested with L2 larvae (6 to 10 per well). The samples were assessed for mortality and growth inhibition in comparison to untreated samples 4 days after infestation.
(§1) The following compounds gave an effect of at least 80% in at least one of the two categories (mortality or growth inhibition) at an application rate of 200 ppm: […]

[2] = system: Chilo suppressalis (Striped Rice Stemborer); test: Example B4: Chilo suppressalis (striped rice stemborer), artificial diet, L2 larvae; details: 144 h, application rate 200 ppm, 6 days after infestation
Protocol: Example B4: Chilo suppressalis (Striped Rice Stemborer)
24-well microtiter plates with artificial diet were treated with aqueous test solutions prepared from 10,000 ppm DMSO stock solutions by pipetting. After drying, the plates were infested with L2 larvae (6-8 per well). The samples were assessed for mortality, anti-feeding effect, and growth inhibition in comparison to untreated samples 6 days after infestation. Control of Chilo suppressalis by a test sample is given when at least one of the categories (i.e. mortality, anti-feedant effect, and growth inhibition) is higher than the untreated sample.

[3] = system: Plutella xylostella (Diamond Back Moth); test: Example B5: Plutella xylostella (diamond back moth), artificial diet, 24-well, eggs; details: 192 h, application rate 200 ppm, 8 days after infestation, read-out: effect in at least one of the two categories (mortality or growth inhibition)
Protocol: Example B5: Plutella xylostella (Diamond Back Moth)
24-well microtiter plates with artificial diet were treated with aqueous test solutions prepared from 10,000 ppm DMSO stock solutions by pipetting. After drying, Plutella eggs were pipetted through a plastic stencil onto a gel blotting paper and the plate was closed with it. The samples were assessed for mortality and growth inhibition in comparison to untreated samples 8 days after infestation. The following compounds gave an effect of at least 80% in at least one of the two categories (mortality or growth inhibition) at an application rate of 200 ppm: […]

[4] = system: Myzus persicae (Green Peach Aphid); test: Example B13: activity against Myzus persicae (green peach aphid), 96-well sucrose solution; details: 120 h, application rate 50 ppm, 5 days after infestation
From the text: Example B13: Activity Against Myzus persicae (Green Peach Aphid)
Test compounds prepared from 10,000 ppm DMSO stock solutions were applied by a liquid handling robot into 96-well microtiter plates and mixed with a sucrose solution. Parafilm was stretched over the 96-well microtiter plate and a plastic stencil with 96 holes was placed onto the plate. Aphids were sieved into the wells directly onto the Parafilm. The infested plates were closed with a gel blotting card and a second plastic stencil and then turned upside down. The samples were assessed for mortality 5 days after infestation.

[5] = system: Spodoptera littoralis (Egyptian Cotton Leaf Worm); test: Example B9: Spodoptera littoralis (Egyptian cotton leaf worm), cotton leaf discs sprayed, L1 larvae; details: foliar, 72 h, application rate 200 ppm, 3 days after infestation
Protocol: Example B9: Spodoptera littoralis (Egyptian Cotton Leaf Worm)
Cotton leaf discs were placed onto agar in 24-well microtiter plates and sprayed with aqueous test solutions prepared from 10,000 ppm DMSO stock solutions. After drying the leaf discs were infested with five L1 larvae. The samples were assessed for mortality, anti-feeding effect, and growth inhibition in comparison to untreated samples 3 days after infestation. Control of Spodoptera littoralis by a test sample is given when at least one of the three categories (i.e. mortality, anti-feedant effect, and growth inhibition) is higher than the untreated sample.

[6] = system: Euschistus heros (Neotropical Brown Stink Bug); test: Example B2: Euschistus heros (neotropical brown stink bug), soybean leaves sprayed, N2 nymphs; details: 120 h, application rate 200 ppm, 5 days after infestation, read-out: effect in at least one of the two categories (mortality or growth inhibition)
Protocol: Example B2: Euschistus heros (Neotropical Brown Stink Bug)
Soybean leaves on agar in 24-well microtiter plates were sprayed with aqueous test solutions prepared from 10,000 ppm DMSO stock solutions. After drying the leaves were infested with N2 nymphs. The samples were assessed for mortality and growth inhibition in comparison to untreated samples 5 days after infestation.
as §1

[7] = system: Myzus persicae (Green Peach Aphid); test: Example B8: Myzus persicae (green peach aphid), intrinsic activity; details: 120 h, test rate 12 ppm, sucrose solution, 24-well, 5 days after infestation
From the text: Example B8: Myzus persicae (Green Peach Aphid), Intrinsic Activity
Test compounds prepared from 10,000 ppm DMSO stock solutions were applied by pipette into 24-well microtiter plates and mixed with sucrose solution. The plates were closed with a stretched Parafilm. A plastic stencil with 24 holes was placed onto the plate and infested pea seedlings were placed directly on the Parafilm. The infested plate was closed with a gel blotting paper and another plastic stencil and then turned upside down. The samples were assessed for mortality 5 days after infestation.

[8] = system: Myzus persicae (Green Peach Aphid); test: Example B6: Myzus persicae (green peach aphid), feeding/contact activity; details: 144 h, application rate 200 ppm, 6 days after infestation
Protocol: Example B6: Myzus persicae (Green Peach Aphid):Feeding/Contact Activity
Sunflower leaf discs were placed onto agar in a 24-well microtiter plate and sprayed with aqueous test solutions prepared from 10,000 ppm DMSO stock solutions. After drying, the leaf discs were infested with an aphid population of mixed ages. The samples were assessed for mortality 6 days after infestation.

[9] = system: Plutella xylostella (Diamondback Moth); test: Example B14: activity against Plutella xylostella (diamondback moth), 96-well artificial diet; details: 216 h, application rate 500 ppm, 9 days after infestation
Protocol: Example B14: Activity Against Plutella xylostella (Diamondback Moth)
96-well microtiter plates containing artificial diet were treated with aqueous test solutions, prepared from 10,000 ppm DMSO stock solutions, by a liquid handling robot. After drying, eggs (30 per well) were infested onto a netted lid which was suspended above the diet. The eggs hatch and L1 larvae move down to the diet. The samples were assessed for mortality 9 days after infestation.
The following compounds gave an effect of at least 80% average mortality at an application rate of 500 ppm: […]

CC(NC(=O)c1cc(-c2ccc(C(F)(F)F)cc2)cc(C(F)(F)F)c1)c1ncnn1-c1ncccn1 (centres unmarked) [P67, N-[1-(2-pyrimidin-2-yl-1,2,4-triazol-3-yl)ethyl]-3-(trifluoromethyl)-5-[4-(trifluoromethyl)phenyl]benzamide]
≥ 80%: percent effect (mortality or growth inhibition) at 200 ppm [1] | percent control (mortality, anti-feedant effect or growth inhibition) at 200 ppm [2] | percent effect (mortality or growth inhibition) at 200 ppm [3] | mortality at 50 ppm [4]

CC(NC(=O)c1cc(-c2ccccc2C(F)(F)F)cc(C(F)(F)F)c1)c1ncnn1-c1ncccn1 (centres unmarked) [P69, N-[1-(2-pyrimidin-2-yl-1,2,4-triazol-3-yl)ethyl]-3-(trifluoromethyl)-5-[2-(trifluoromethyl)phenyl]benzamide]
≥ 80%: percent effect (mortality or growth inhibition) at 200 ppm [1] | percent control (mortality, anti-feedant effect or growth inhibition) at 200 ppm [2] | percent effect (mortality or growth inhibition) at 200 ppm [3] | percent control (mortality, anti-feedant effect or growth inhibition) at 200 ppm [5] | mortality at 50 ppm [4]

Cc1nc(C(C)NC(=O)c2cc(C3CC3)cc(C(F)(F)F)c2)n(-c2ncc(Br)cn2)n1 (centres unmarked) [P80, N-[1-[2-(5-bromopyrimidin-2-yl)-5-methyl-1,2,4-triazol-3-yl]ethyl]-3-cyclopropyl-5-(trifluoromethyl)benzamide]
≥ 80%: percent effect (mortality or growth inhibition) at 200 ppm [1] | percent effect (mortality or growth inhibition) at 200 ppm [6] | percent control (mortality, anti-feedant effect or growth inhibition) at 200 ppm [2] | percent effect (mortality or growth inhibition) at 200 ppm [3] | percent control (mortality, anti-feedant effect or growth inhibition) at 200 ppm [5]

Cc1nc(C(C)NC(=O)c2cc(C3CC3)cc(C(F)(F)F)c2)n(-c2ncccn2)n1 (centres unmarked) [P86, 3-cyclopropyl-N-[1-(5-methyl-2-pyrimidin-2-yl-1,2,4-triazol-3-yl)ethyl]-5-(trifluoromethyl)benzamide]
≥ 80%: percent effect (mortality or growth inhibition) at 200 ppm [1] | percent effect (mortality or growth inhibition) at 200 ppm [6] | percent control (mortality, anti-feedant effect or growth inhibition) at 200 ppm [2] | percent effect (mortality or growth inhibition) at 200 ppm [3] | mortality at 12 ppm [7] | percent control (mortality, anti-feedant effect or growth inhibition) at 200 ppm [5]

CC(NC(=O)c1cc(C2CC2)cc(C(F)(F)F)c1)c1ncnn1-c1ncc(Br)cn1 (centres unmarked) [P81, N-[1-[2-(5-bromopyrimidin-2-yl)-1,2,4-triazol-3-yl]ethyl]-3-cyclopropyl-5-(trifluoromethyl)benzamide]
≥ 80%: percent effect (mortality or growth inhibition) at 200 ppm [1] | percent effect (mortality or growth inhibition) at 200 ppm [6] | percent control (mortality, anti-feedant effect or growth inhibition) at 200 ppm [2] | percent effect (mortality or growth inhibition) at 200 ppm [3] | percent control (mortality, anti-feedant effect or growth inhibition) at 200 ppm [5]

CC(NC(=O)c1cc(C2CC2)cc(C(F)(F)F)c1)c1ncnn1-c1ncccn1 (centres unmarked) [P24, 3-cyclopropyl-N-[1-(2-pyrimidin-2-yl-1,2,4-triazol-3-yl)ethyl]-5-(trifluoromethyl)benzamide]
≥ 80%: percent effect (mortality or growth inhibition) at 200 ppm [1] | percent effect (mortality or growth inhibition) at 200 ppm [6] | percent effect (mortality or growth inhibition) at 200 ppm [3] | mortality at 200 ppm [8] | mortality at 12 ppm [7] | percent control (mortality, anti-feedant effect or growth inhibition) at 200 ppm [5] | mortality at 50 ppm [4] | mortality at 500 ppm [9]

CC(NC(=O)c1cc(C(F)(F)F)cc(C2(C)CC2(F)F)c1)c1ncnn1-c1ncccn1 (centres unmarked) [P88, 3-(2,2-difluoro-1-methyl-cyclopropyl)-N-[1-(2-pyrimidin-2-yl-1,2,4-triazol-3-yl)ethyl]-5-(trifluoromethyl)benzamide]
≥ 80%: percent effect (mortality or growth inhibition) at 200 ppm [1] | percent effect (mortality or growth inhibition) at 200 ppm [6] | percent control (mortality, anti-feedant effect or growth inhibition) at 200 ppm [2] | percent effect (mortality or growth inhibition) at 200 ppm [3] | mortality at 12 ppm [7] | percent control (mortality, anti-feedant effect or growth inhibition) at 200 ppm [5] | mortality at 50 ppm [4]

Cc1nc(C(C)NC(=O)c2cc(C(F)(F)F)cc(C(C)(C)C#N)c2)n(-c2ncc(Br)cn2)n1 (centres unmarked) [P77, N-[1-[2-(5-bromopyrimidin-2-yl)-5-methyl-1,2,4-triazol-3-yl]ethyl]-3-(1-cyano-1-methyl-ethyl)-5-(trifluoromethyl)benzamide]
≥ 80%: percent effect (mortality or growth inhibition) at 200 ppm [1] | percent effect (mortality or growth inhibition) at 200 ppm [6] | percent control (mortality, anti-feedant effect or growth inhibition) at 200 ppm [2] | percent effect (mortality or growth inhibition) at 200 ppm [3] | mortality at 12 ppm [7] | percent control (mortality, anti-feedant effect or growth inhibition) at 200 ppm [5]

CC(NC(=O)c1cc(OCC(F)F)cc(C2CC2)c1)c1ncnn1-c1ncccn1 (centres unmarked) [P61, 3-cyclopropyl-5-(2,2-difluoroethoxy)-N-[1-(2-pyrimidin-2-yl-1,2,4-triazol-3-yl)ethyl]benzamide]
≥ 80%: percent effect (mortality or growth inhibition) at 200 ppm [6] | percent control (mortality, anti-feedant effect or growth inhibition) at 200 ppm [2] | percent effect (mortality or growth inhibition) at 200 ppm [3] | mortality at 200 ppm [8] | mortality at 12 ppm [7] | percent control (mortality, anti-feedant effect or growth inhibition) at 200 ppm [5]

CC(NC(=O)c1cc(-c2cccc(C(F)(F)F)c2)cc(C(F)(F)F)c1)c1ncnn1-c1ncccn1 (centres unmarked) [P68, N-[1-(2-pyrimidin-2-yl-1,2,4-triazol-3-yl)ethyl]-3-(trifluoromethyl)-5-[3-(trifluoromethyl)phenyl]benzamide]
≥ 80%: percent effect (mortality or growth inhibition) at 200 ppm [1] | percent control (mortality, anti-feedant effect or growth inhibition) at 200 ppm [2] | percent effect (mortality or growth inhibition) at 200 ppm [3] | percent control (mortality, anti-feedant effect or growth inhibition) at 200 ppm [5] | mortality at 50 ppm [4]

CC(NC(=O)c1cc(C(F)(F)F)cc(C(C)(C)C#N)c1)c1ncnn1-c1ccccn1 (centres unmarked) [P75, 3-(1-cyano-1-methyl-ethyl)-N-[1-[2-(2-pyridyl)-1,2,4-triazol-3-yl]ethyl]-5-(trifluoromethyl)benzamide]
≥ 80%: percent effect (mortality or growth inhibition) at 200 ppm [1] | percent control (mortality, anti-feedant effect or growth inhibition) at 200 ppm [2] | percent effect (mortality or growth inhibition) at 200 ppm [3] | mortality at 12 ppm [7] | percent control (mortality, anti-feedant effect or growth inhibition) at 200 ppm [5]
